pKi: −log10 of the molar value.
How the values were obtained:
[1] = target: T1, canine kidney (Na^+ +K^+)ATPase (Canis lupus familiaris, UniProt P50997); test: (Na+ +K+)ATPase activity assay coupled to NADH oxidation (A340); format: biochemical, canine (dog); details: for time course of inhibition of (Na^+ +K^+)ATPase activity: FIG. 1a/1b, continuous recording of A340, 37° C.
T1 construct: suspending canine kidney (Na^+ +K^+)ATPase; purchased Sigma Chemical; host or cells: canine kidney (tissue-derived membrane preparation)
Description: The (Na^+ +K^+)ATPase preparation employed in the assay of this example comprised unsealed membrane sheets as described in Jorgensen, P. L. Biochim. Biophys. Acta 356: 36-52 (1974). Thus, it was not able to distinguish between an external and an internal site of action for the inhibitor.
The ATPase assay solution employed contained 400 μl of an ATPase cocktail and 580 μl of water. The ATPase cocktail was such that the final reaction conditions were (in 1.0 ml) as follows: 20 mM KCl; 100 mM NaCl; 4.5 mM MgSO4; 5 mM EGTA; 3 mM Na2 ATP; 1.2 mM tricyclohexylammonium phosphoenolpyruvate (PEP), 0.25 NADH, 40 mM trimethylaminoethanesulphonic acid (TES)-Tris, pH 7.4; 1.2 units lactate dehydrogenase (LDH); and 1.2 units pyruvate kinase (PK), (ATP, PEP, NADH, LDH and PK were purchased from Boehringer Mannheim Biochemicals; LDG and PK enzymes were obtained as glycerol suspensions.)
The (Na^+ +K^+)ATPase suspension was prepared for assay by suspending canine kidney (Na^+ +K^+)ATPase (obtained from Sigma Chemical having a specific activity of 5-6 μmol per min per mg protein and containing a ouabain-insensitive Mg^2+ -ATPase activity which was less than 2% of the total steady-state ATPase activity) in 500 μM Na4 EDTA, 10 mM (TES)-Tris pH 7.4, at a protein concentration of 150 μg/ml. The resuspended enzyme was incubated at 25° C. for 3 hours and then stored on ice.
The assay was initiated by the rapid addition of 20 μl of ATPase suspension (3 μg protein) to 980 μl of ATPase assay solution in a 1.0 ml cuvette at 37° C. The decrease in ultraviolet light absorbance at 340 nm (A340) due to NADH oxidation (ε=6.22×10^3 1 mol^-1 cm^-1) was continuously recorded using a Beckman Model 25 UV-VIS recording spectrophotometer.
FIG. 1a illustrates ATPase inhibition by ouabain. […] The control contained an appropriate quantity of DMSO.
FIG. 1b illustrates ATPase inhibition by vanadate. […] The control contained in appropriate quantity of water. […]
Percent inhibition was calculated as: [formula]

[2] = system: ATP generating reaction system; test: Efficacy of the ATP generating reaction system (rates of NADH oxidation on addition of ADP); format: biochemical; details: at the concentrations shown in FIGS. 1a and 1b; addition of 10-50 μM ADP

Structure (SMILES)	time course of inhibition of (Na^+ +K^+)ATPase activity [1]	effect on the efficacy of the ATP generating reaction system [2]	pKi ([1]; from steady-state levels of (Na^+ +K^+)ATPase activity at various vanadate concentrations, 37° C.)
C[C@@H]1O[C@@H](O[C@H]2C[C@@H](O)[C@]3(CO)[C@H]4[C@H](O)C[C@]5(C)[C@@H](C6=CC(=O)OC6)CC[C@]5(O)[C@@H]4CC[C@]3(O)C2)[C@H](O)[C@H](O)[C@H]1O [ouabain]	no significant effect on the reaction for the first 30 seconds, and thereafter causes a progressive, dose-dependent increase in inhibition	Neither ouabain nor vanadate, at the concentrations shown in FIGS. 1a and 1b, had a significant effect	
[Na+].[Na+].[Na+].[O]=[V]([O-])([O-])[O-] [vanadate, Na3 VO4]	the effect of vanadate was apparent in the first few seconds of the reaction	Neither ouabain nor vanadate, at the concentrations shown in FIGS. 1a and 1b, had a significant effect	6.05

From patent US4665019A, “Method for measuring the plasma levels of an inhibitor of (Na^+ +K^ +” (University of Maryland, priority 1983, dated 1987)
